These results are taken from patent US10463669B2, “Composition for treating or preventing liver cancer” (Seoul National University R&DB Foundation, priority 2016, dated 2019).

Holding throughout (type): cell-based, human
Experiment [1] has as its system β-catenin and SetD1A binding to the TERT promoter in Huh7 cells. Kind of experiment: Chromatin immunoprecipitation (ChIP) at the TERT promoter. As to conditions: HCC (Huh7) cells, with or without 300 μmol/L H2O2. On the procedure: As it has been described before (Lim S O, et al. Gastroenterology. 2008; 135: 2128-40, 40 el-8.; Hoffmeyer K, et al. Science. 2012; 336: 1549-54.), several modified ChIP (chromatin immunoprecipitation) tests were carried out. In the presence or absence of a PI3K inhibitor, an AKT inhibitor, or a GSK3β inhibitor, Huh7 cells were cultured for 4 days with or without a treatment of 300 μmol/L H2O2. Under mild shaking for 20 minutes at room temperature, the cells were fixed by using 1% paraformaldehyde. After that, the cells were rinsed twice with ice-cold PBS; resuspended with 400 μL of micrococcal nuclease buffer (50 mmol/L TrisHCl [pH 8.0], 5 mmol/L CaC12, 100 μg/mL BSA, 10 mmol/L KCl, and protease inhibitor cocktail [Roche, Basel, Switzerland; 4693159001]); and disrupted with 2 mm-diameter zirconium beads (Watson); to have micrococcal nuclease digestion (New England Biolabs, Beverly, Mass., USA; M0247S). Chromatin (150 μg) was collected and diluted in a dilution buffer (0.1% NP-40, 2 mmol/L EDTA, 150 mmol/L NaCl, 20 mmol/L TrisHCl [pH 8.0], protease inhibitor cocktail [Roche]), and a phosphatase inhibitor cocktail [Calbiochem]), and then subjected to pre-clearing with 2 μg digested salmon sperm DNA, 10 μL preimmune serum (Santa Cruz Biotechnology; sc-2027), and Dynabeads Protein G (Life Technologies; 1004D) for 2 hours at 4° C. After the immunoprecipitation, 20 μL of Dynabeads Protein G were added thereto and the culture was continued for 2 hours. The Dynabeads were washed continuously for 10 minutes with TSE 1 (0.1% SDS, 1% Triton X-100, 2 mmol/L EDTA, 20 mmol/L TrisHCl, and 150 mmol/L NaCl), TSE II (0.1% SDS, 1% Triton X-100, 2 mmol/L EDTA, 20 mmol/L TrisHCl, and 500 mmol/L NaCl), and buffer III (0.25 mol/L LiCl, 1% NP-40, 1% deoxycholate, 1 mmol/L EDTA, and 10 mmol/L TrisHCl). After that, the beads were washed 3 times with TE buffer, and extraction was made by using 1% SDS and 0.1 mol/L NaHCO3. To have reverse formaldehyde cross-linking, the elution solution was heated overnight at 65° C. By using NucleoSpin DNA clean-up kit, DNA debris were purified. By using primers specific to the TERT promoter region, the PCR amplified product was quantified by qPCR (ABI 7300; Applied Biosystems, Foster City, Calif., USA). The PCR amplification was normalized against the TERT intron. The primer sequences are as follows: β-catenin interaction site for ChIP (forward primer: TCCCGGGTCCCCGGCCCA (SEQ ID NO:8); reverse primer: […] (SEQ ID NO:9)) and TERT intron for ChIP (forward primer: […] (SEQ ID NO:10); reverse primer: […] (SEQ ID NO:11)). For each of the β-catenin interaction site which has been recorded before, 20-22 bp were added. The antibodies that are used are as follows: rabbit polyclonal anti-β-catenin (1:200, Abcam, Cambridge, Mass., USA; ab6302), mouse monoclonal anti-RNA polymerase II (1:50, Covance, Princeton, N.J., USA; MMS-126R), and rabbit polyclonal anti-SETD1A (1:100, Novus Biologicals, Littleton, Colo., USA; NBP1-81513).
Inventors of the present invention made an investigation to see whether or not the increased chromatin accessibility in TERT promoter during TERT transcription is related with β-catenin. To do so, by using intrinsic β-catenin and an antibody against histone methyl transferase SetD1A which has been reported to promote the TERT transcription based on chromatin remodeling, chromatin immunoprecipitation was carried out. When a PI3K or AKT inhibitor is treated together for chromatin immunoprecipitation, β-catenin and SetD1A, which bind to the TERT promoter in HCC cells, were reduced even in the presence of H2O2 (FIGS. 3A and 3B). However, when the treatment is carried out also with a GSK3p inhibitor, increased binding of β-catenin and SetD1A was shown regardless of a treatment with H2O2 (FIG. 3C).

Experiment [2] has as its system TERT expression in HCC cell lines (Huh7 and Hep3B). Kind of experiment: TERT expression, quantitative real time-PCR and immunoblot. The following applies: HCC cells treated simultaneously with NAC and H2O2. On the procedure:
Medium was exchanged every day, and the aforementioned cells were cultured for 4 days in 300 μmol/L hydrogen peroxide (H2O2) (Sigma Aldrich; H1009). In several experiments, the cells were treated for 1 hour with 5 mmol/L N-acetylcysteine (NAC) (Sigma Aldrich; A7250), 25 μmol/L idelalisib (LC Laboratoties, Woburn, Mass., USA; I-7447), 25 μmol/L perifosine (LC Laboratoties, Woburn, Mass., USA; P-6522), or 30 μmol/L GSK3β inhibitor (GSK3β inhibitor XI) (Santa Cruz; sc-204770) (31) before adding H2O2. Furthermore, sterilized distilled water (pH 7.0) was used as a negative control (i.e., mock treatment).
PCR was carried out by using TOPrealm qPCR 2×PreMIX (SYBR Green with high ROX) (Enzynomics, Daejeon, Korea; RT501M) and ABI Prism 7300 thermal cycler (Applied Biosystems, Foster City, Calif., USA). […] To examine the primer specificity, a dissociation step was additionally included.
Total 2×10^5 cells were boiled for 5 minutes in 2×SDS sample buffer (100 mmol/L TrisHCl [pH 6.8], 4% SDS, 0.2% bromophenol blue, 20% glycerol, and 200 mmol/L β-mercaptoethanol), and then subjected to SDS-PAGE and Western blotting. To detect the TERT, the cells were cultured in 2×SDS sample buffer for 15 minutes at 55° C. TERT-specific (1:300, Rockland Immunochemicals, Gilbertsville, Pa., USA; 600-401-252), AKT-specific (1:1000, Cell Signaling Technology; #9272), phospho-AKT-specific (1:2000, Cell Signaling Technology; #4060), GAPDH-specific (1:2000, Santa Cruz Biotechnology; sc-47724), or β-actin-specific (1:2000, Sigma-Aldrich, St. Louis, Mo., USA; A5441) antibody was diluted in 5% skim milk or bovine serum albumin with TBS-Tween 20, cultured overnight at 4° C., washed, and cultured with HRP-conjugated secondary antibody (1:1000, Abcam; ab131368, or ab131366). By using FUSION-SOLO imager (Vilber Lourmat, Marne La Vallee, France), a chemical fluorescence image was obtained.
For orientation: A western blot detects proteins with antibodies after separation by electrophoresis.

The test system of experiment [3] is telomere length in HCC cell lines (Huh7 and Hep3B). As to the kind of experiment: Telomere length (Southern blot, immunoFISH, Flow FISH, quantitative PCR). The following applies: HCC cells treated simultaneously with NAC and H2O2. On the procedure: Volume of the hybridization buffer was adjusted to 100 μl per 10^5 cells. Next, each sample was cultured for 10 minutes in a water bath at 85° C. […] Total 15,000 to 20,000 nuclei were analyzed for the each separate culture. Telomere fluorescence intensity of the all nuclei at […] phase of the cell cycle was measured by using BD FACS Calibur flow cytometer (Becton Dickinson, Franklin Lakes, N.J., USA) in which CELLQUEST software is used. The established ImmunoFISH protocol (Plentz R R, et al., Hepatology. 2007; 45: 968-76) was used with slight modifications. The paraffin-embedded section was subjected to de-paraffinization using xylene, and then rehydrated using ethanol gradient. Antigen retrieval was carried out by boiling in 100 mmol/L sodium citrate (pH 6.0) for 10 minutes in a microwave. After permeation of proteinase K (15 μg/mL in PBS [pH 7.4]) for 20 minutes at 37° C., 8-oxo-dG-specific antibody (1:100, Abcam, Cambridge, Mass., USA; ab62623) was subjected to 1% BSA dilution in PBS 0.1% Triton X-100 and cultured overnight at room temperature. After washing, the slide was treated with Alexa 647 secondary antibody for 1 hour. […] After denaturation for 6 minutes at 90° C., the sample was hybridized for 2 hours at dark place. […] After washing, the slide was rinsed with PBS containing DAPI, and then sealed with a DAPI sealing agent (mounting medium) (Vector Laboratories, Burlingame, Calif., USA). Simultaneously, the inventors of the present invention carried out centromere staining as an internal control for telomere staining and 8-oxo-dG staining. […] For quantification of the telomere fluorescence intensity, centromere fluorescence intensity, and 8-oxo-dG fluorescence intensity, the same exposure time was employed. The telomere fluorescence level and 8-oxo-dG fluorescence level of tumor tissues were calculated by division of the fluorescence level in non-tumor tissues corresponding to 5 random fields. The image analysis was carried out by using Image-Pro plus 6.0 software (Media Cybernetics, Inc., Rockville, Md., USA). Telomere length was determined by using the non-radioactive chemical fluorescence TeloTAGGG telomere length assay (Roche; Cat. No. 12 209 136 001) according to the manual. Genomic DNA was separated from HCC cells using GeneJET Genomic DNA Purification Kit (Thermo Scientific; #K0721), and then 4 μg of the genomic DNA was digested for 16 hours at 37° C. with 20 units of […] digested DNA was subjected to 0.8% agarose gel electrophoresis, and then transferred to a positively charged nylon membrane using capillary transfer. The blotted DNA was hybridized for 16 hours at 42° C. with a digoxigenin (DIG)-labeled probe that is specific to the telomere repeat. After that, it was cultured for 30 minutes at room temperature with DIG-specific antibody conjugated to an alkaline phosphatase Based on quantitative PCR analysis using the genomic DNA extracted from cells, relative telomere repeat copy number (T) and single copy number (S) were determined, and the calculation was made like previous method in which T/S ratio is continuously modified (Cawthon R M. Telomere length measurement by a novel monochrome multiplex quantitative PCR method. Nucleic Acids Res. 2009; 37: e21).

For `O=C1NC(=O)C(c2cn(CCCO)c3ncccc23)=C1c1cnccn1` [GSK3β inhibitor XI], in experiment [1], the “SetD1A binding to the TERT promoter” value is given as “increased” and the “β-catenin binding to the TERT promoter” value was “increased”.
As for `CC(=O)N[C@@H](CS)C(=O)O` [NAC, N-acetylcysteine], the “H2O2-induced increased TERT expression” value in experiment [2] is on record as “disappeared”. Besides, in experiment [3], the “H2O2-induced increased telomere length” value is given as “disappeared”.
Regarding `CCCCCCCCCCCCCCCCCCOP(=O)([O-])OC1CC[N+](C)(C)CC1` [perifosine], in experiment [1], the “SetD1A binding to the TERT promoter” value is “reduced” and the “β-catenin binding to the TERT promoter” value is given as “reduced”.
